Results reported in BindingDB's records for doi:10.1021/acs.jmedchem.9b02038 (China Pharmaceutical University, 2020).

What was measured:
[1] = Inhibition of Vps34 in human MCF7-LC3 cells assessed as rapamycin-induced autophagy
[2] = Inhibition of Vps34 in human MCF7-LC3 cells assessed as starvation-induced autophagy

IC50 [1]: 40 nM
IC50 [2]: 90 nM
Compound: Cc1cc(Nc2cc(Cl)nc(Oc3ccc([N+](=O)[O-])cc3)n2)n[nH]1
